Experimental data as given in PMC12226733, “Evolution of iGluR ligand specificity, polyamine regulation, and ion selectivity inferred from a placozoan epsilon receptor” (Communications Biology, 2025).
Where a chain is given by its changes, count along the chain named. “And” between values parts separate entries of the source, which are not always exact repeats. Equal values may be shown once. Read-outs that look alike come from different tables or passages of the source.

How the values were obtained:
GluE1αA S642Q [1] = target: T1, GluE1αA S642Q (Trichoplax adhaerens, UniProt B3SAW0, S167Q); assay type: cell-based
T1 sequence (B3SAW0 1-341 S167Q): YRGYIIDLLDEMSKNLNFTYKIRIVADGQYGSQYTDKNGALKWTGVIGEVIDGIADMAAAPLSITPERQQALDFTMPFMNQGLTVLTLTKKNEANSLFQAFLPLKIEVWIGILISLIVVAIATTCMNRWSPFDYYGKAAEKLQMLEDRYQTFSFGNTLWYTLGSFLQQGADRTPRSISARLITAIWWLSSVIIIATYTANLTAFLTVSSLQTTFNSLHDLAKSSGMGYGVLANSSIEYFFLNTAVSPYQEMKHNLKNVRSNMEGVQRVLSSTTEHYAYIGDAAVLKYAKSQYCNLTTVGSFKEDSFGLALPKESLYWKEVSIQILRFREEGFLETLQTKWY

GluE1αA S642N [2] = target: T2, GluE1αA S642N (Trichoplax adhaerens, UniProt B3SAW0, S167N); assay type: cell-based
T2 sequence (B3SAW0 1-341 S167N): T1 sequence (B3SAW0 1-341 S167Q) with Q167N

GluE1αA wildtype [3] = assay type: cell-based, Trichoplax adhaerens
GluE1αA D646A [4] = assay type: cell-based, Trichoplax adhaerens
GluE1αA S642R [5] = assay type: cell-based, Trichoplax adhaerens
GluE1αA S642R [6] = assay type: cell-based, Trichoplax adhaerens; remark: listed apart in the source
GluE1αA S642Q plus D646A [7] = assay type: cell-based, Trichoplax adhaerens
GluE1αA S642Q plus D646A [8] = assay type: cell-based, Trichoplax adhaerens; remark: listed apart in the source
GluE1αA D646A [9] = assay type: cell-based, Trichoplax adhaerens; remark: listed apart in the source
GluE1αA S642Q [10] = target: T1, GluE1αA S642Q; assay type: cell-based; remark: listed apart in the source
GluE1αA wildtype [11] = assay type: cell-based, Trichoplax adhaerens; remark: listed apart in the source
GluE1αA S642N [12] = target: T2, GluE1αA S642N; assay type: cell-based; remark: listed apart in the source
[13] = test system: GluE1αA m2 variant (S653G, I655T); assay type: cell-based, Trichoplax adhaerens
Source text: (§1) As noted, a model has been put forward that defines iGluR ligand specificity based on a set of key amino acids in the LBD of iGluRs[11]. […] To the best of our knowledge, whether these few positions are indeed solely responsible for ligand specificity, and moreover, can be altered to switch specificity for natural ligands, has not been experimentally tested. […] We also created a triple mutant, with an additional phenylalanine to tyrosine mutation at position 732 (F732Y; m3 variant), to make the T. adhaerens epsilon receptor resemble GluN2A and GluA2 receptors from human, reasoning that this mutation might enhance glutamate sensitivity. We also generated a single F732Y mutant (m1 variant), to assess the contribution of this amino acid to ligand specificity in isolation.
(§2) The cDNA of the T. adhaerens GluE1αA receptor was cloned into the mammalian expression vector pIRES2-EGFP, using a 5’ nested primer that inserted a mammalian consensus Kozak sequence of […] (Supplementary Table 5). Several mutants/variants of this receptor where also prepared via site directed mutagenesis using standard procedures and primers listed in Supplementary Table 5. For electrophysiological comparisons, we commissioned GenScript (USA) to synthesize the cDNA of the human GluA2 […] receptor (NCBI accession number NP_001077088.2), which was cloned into the pIRES2-EGFP vector with a Kozak sequence flanking the start codon and restriction enzymes SalI and BamHI at the 5’ and 3’ ends of the cDNA, respectively. Receptor cDNAs in the various pIRES2 constructs were transfected into Chinese Hamster Ovary-K1 (CHO-K1; Sigma) cells cultured in Dulbecco’s Modified Eagle Medium Nutrient Mixture F-12 (DMEM/F12) supplemented with 10% Fetal Bovine Serum (FBS) and 1% penicillin-streptomycin at 37°C. Transfections were done with 2 μg of plasmid vector using the transfecting reagent PolyJet^TM (SignaGen Laboratories, USA) according to the manufacturer’s instructions and plated onto glass coverslips in 35 mm dishes the next day. Transfected cells were incubated at 28°C for 2 to 4 days, then coverslips were transferred to a new 60 mm dish with 5 mL of external recording solution. […] Agonists and pharmacological compounds used in this study were dissolved in corresponding external solutions. […] Patch pipettes were pulled using a P-1000 micropipette puller (Sutter, USA), from thick-walled borosilicate tubing (1.5 and 0.86 outer and inner diameter, respectively), to a resistance of between 1 and 6 megaohms.

[14] = test system: GluE1αA m1 variant (F732Y); assay type: cell-based, Trichoplax adhaerens
Source text: as §1, §2

[15] = test system: GluE1αA m3 variant (S653G, I655T, F732Y); assay type: cell-based, Trichoplax adhaerens; conditions: m3
Source text: as §1, §2

[16] = target: T3, T. adhaerens GluE1αA receptor (wildtype) (Trichoplax adhaerens, UniProt B3SAW0); assay: whole-cell patch clamp, agonist-evoked currents in CHO-K1 cells; assay type: cell-based
T3 sequence (B3SAW0 entry or part of it): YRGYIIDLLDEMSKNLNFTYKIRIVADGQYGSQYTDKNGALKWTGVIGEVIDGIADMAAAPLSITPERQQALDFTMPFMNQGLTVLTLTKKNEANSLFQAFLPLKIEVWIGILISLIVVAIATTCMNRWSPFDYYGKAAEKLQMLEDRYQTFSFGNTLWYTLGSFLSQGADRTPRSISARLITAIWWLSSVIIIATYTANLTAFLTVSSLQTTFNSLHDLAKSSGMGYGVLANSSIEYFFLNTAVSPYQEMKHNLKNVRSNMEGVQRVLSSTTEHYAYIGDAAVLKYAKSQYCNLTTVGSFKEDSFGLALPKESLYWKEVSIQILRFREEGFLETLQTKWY

[17] = target: T3, T. adhaerens GluE1αA receptor (wildtype); conditions: 2 s pulse of 3 mM glycine, wash of increasing duration, 2 s test pulse; single exponential; n = 10
Source text: as §2

[18] = m1, ligand 10 mM, normalized to glycine

[Cs+] [Cs]
pCs/pNa (GluE1αA S642Q [1]): 0.77 and 1.08 and 1.06 and 1.15 and 1.01 and 1.25
pCs/pNa (GluE1αA S642N [2]): 1.10 and 1.06 and 1.08 and 0.97 and 0.98 and 0.82
pCs/pCa (GluE1αA wildtype [3]): 1.08 and 0.98 and 1.16 and 1.36 and 1.19 and 1.14
Cs vs Ca, Avg (Figure S8e, normalized G-V) (GluE1αA D646A [4]): 1.00 and 0.97 and 0.90 and 0.81 and 0.79 and 0.75 and 0.88
pCs/pCa (GluE1αA D646A [4]): 1.12 and 1.10 and 0.98 and 1.02 and 1.05 and 0.97
pCs/pCa (GluE1αA S642R [5]): 2.85 and 2.43 and 1.93 and 2.69 and 2.80 and 3.78
pCs/pNa (GluE1αA S642R [6]): 0.92 and 0.78 and 0.83 and 0.84 and 0.81 and 0.79 and 0.82
Cs vs Ca, Avg (Figure S8e, normalized G-V) (GluE1αA S642Q plus D646A [7]): 1.00 and 1.03 and 0.98 and 1.02 and 1.15 and 1.27 and 1.40 and 1.41
pCs/pCa (GluE1αA S642Q plus D646A [7]): 7.48 and 6.98 and 7.28 and 7.47 and 4.49 and 4.01 and 6.97 and 6.40
pCs/pNa (GluE1αA S642Q plus D646A [8]): 1.15 and 1.09 and 1.10 and 1.24 and 1.08 and 1.02
pCs/pNa (GluE1αA D646A [9]): 1.01 and 0.96 and 0.98 and 0.97 and 1.08
pCs/pCa (GluE1αA S642Q [10]): 8.99 and 7.25 and 7.15 and 8.09 and 7.84 and 7.74 and 7.89
Avg of recordings (Figure S7c, G-V, normalized) (GluE1αA wildtype [11]): 0.58 and 0.69 and 0.78 and 0.80 and 1.00 and 0.93 and 0.77 and 0.60
pCs/pNa (GluE1αA wildtype [11]): 0.95 and 0.96 and 0.99 and 0.93 and 0.92
pCs/pCa (GluE1αA S642N [12]): 5.26 and 5.24 and 5.82 and 3.13 and 4.33 and 4.04

NCC(=O)O [glycine]
normalized peak inward current, Avg [13]: 0.37 and 0.38
normalized peak inward current, single recording [13]: 0.36 and 0.37 and 0.44 and 0.40 and 0.28 and 0.49 and 0.42 and 0.34
EC50 ([14]; m1 (F732Y) variant, dose response of normalized current): 300 ± 40 µM
normalized current (dose response), Avg ([14]; m1, glycine 0.03 mM): 0.00429
normalized current (dose response), single recording ([14]; m1, glycine 0.03 mM): 0.00434 and 0.00425
normalized current (dose response), Avg ([14]; m1, glycine 0.1 mM): 0.0331
normalized current (dose response), Avg ([14]; m1, glycine 0.3 mM): 0.50
normalized current (dose response), single recording ([14]; m1, glycine 0.3 mM): 0.36 and 0.35 and 0.56 and 0.51 and 0.57 and 0.65 and 0.62
normalized current (dose response), Avg ([14]; m1, glycine 1 mM): 0.98
normalized current (dose response), single recording ([14]; m1, glycine 1 mM): 0.97 and 1.00 and 0.96
normalized current (dose response), Avg ([14]; m1, glycine 3 mM): 0.99
normalized current (dose response), single recording ([14]; m1, glycine 3 mM): 1.00 and 0.99 and 0.96
normalized current (dose response), Avg ([14]; m1, glycine […]): 0.85
normalized peak inward current, Avg [14, 18]: 1.00
normalized peak inward current, single recording [14, 18]: 0.93 and 1.04 and 1.03 and 0.96
normalized peak inward current, Avg ([15]; agonist 1 mM): 0.0155
normalized peak inward current, Avg ([15]; ligand 10 mM, normalized to glutamate): 0.0446
activation of ligand-gated current [16]: activated
normalized peak inward current, Avg [16]: 1.02 and 1.00
sensitivity to agonist [16]: robust currents
time constant of recovery from desensitization (τ) [17]: 184 ± 45 ms
